This is an account of results in ChEMBL document CHEMBL5356940, “The rational design of ARUK2007145, a dual inhibitor of the α and γ isoforms of the lipid kinase phosphatidylinositol 5-phosphate 4-kinase (PI5P4K)” (RSC Med Chem, 2023).

Data set [1] deals with Phosphatidylinositol 5-phosphate 4-kinase type-2 gamma (Homo sapiens, UniProt Q8TBX8).
Description: Inhibition of GST-fused human recombinant chimeric PI5P4Kgamma+ harboring PI5P4Kalpha-like mutations expressed in Escherichia coli BL21(DE3) incubated for 60 mins by ADP-Glo assay
The nature of data set [2]: Apparent permeability across apical to basolateral side in dog MDCK-MDR1 cells. It counts as ADME, cell-based, Canis lupus familiaris.
The target of data set [3] is T1, Phosphatidylinositol 5-phosphate 4-kinase type-2 beta (Homo sapiens, UniProt P78356).
T1 sequence (P78356 whole entry): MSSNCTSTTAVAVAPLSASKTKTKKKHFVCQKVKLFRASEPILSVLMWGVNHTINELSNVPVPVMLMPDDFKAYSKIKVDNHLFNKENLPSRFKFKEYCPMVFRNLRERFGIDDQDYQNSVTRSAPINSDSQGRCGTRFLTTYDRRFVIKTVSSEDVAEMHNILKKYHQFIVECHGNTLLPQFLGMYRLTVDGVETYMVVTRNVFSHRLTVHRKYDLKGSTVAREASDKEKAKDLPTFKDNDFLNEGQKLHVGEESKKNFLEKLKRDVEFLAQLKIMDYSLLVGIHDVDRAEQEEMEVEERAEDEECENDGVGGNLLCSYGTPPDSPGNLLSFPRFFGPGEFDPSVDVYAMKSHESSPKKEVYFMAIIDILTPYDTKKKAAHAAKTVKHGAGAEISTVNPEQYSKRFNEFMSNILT
Nature of the data set: Inhibition of GST-fused human recombinant PI5P4Kbeta expressed in Escherichia coli BL21(DE3) incubated for 60 mins by ADP-Glo assay. Background: ADP-Glo first removes unused ATP, then detects ADP through luciferase.

Sequence of Phosphatidylinositol 5-phosphate 4-kinase type-2 gamma (Q8TBX8 2-421 limits assumed, change not shown): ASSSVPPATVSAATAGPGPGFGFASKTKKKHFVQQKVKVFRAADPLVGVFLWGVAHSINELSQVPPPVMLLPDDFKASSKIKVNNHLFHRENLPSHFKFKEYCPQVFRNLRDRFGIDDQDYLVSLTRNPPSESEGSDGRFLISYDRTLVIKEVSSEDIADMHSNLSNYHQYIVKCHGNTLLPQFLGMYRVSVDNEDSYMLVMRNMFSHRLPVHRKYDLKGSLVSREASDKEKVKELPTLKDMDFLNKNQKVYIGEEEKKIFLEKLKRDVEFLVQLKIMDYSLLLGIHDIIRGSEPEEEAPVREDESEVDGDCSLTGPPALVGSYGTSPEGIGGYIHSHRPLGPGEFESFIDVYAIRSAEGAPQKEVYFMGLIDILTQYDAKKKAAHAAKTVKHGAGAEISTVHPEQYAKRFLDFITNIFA

In general, pIC50 refers to the negative decadic logarithm of the IC50, by convention in mol/L. A higher pIC50 goes with a low IC50. In the case of `Cc1ncccc1-c1cc2ncnc(Nc3ccc4ncoc4c3)c2s1`, the pIC50 in data set [1] is 6.3.

The molecule `COc1ccc(Nc2ncnc3sc(-c4cccnc4C)cc23)cc1` had a negative-log IC50 (pIC50) in data set [1] of 5.7.

The molecule `CS(=O)(=O)c1ccc(Nc2ncnc3sc(-c4ccncc4)cc23)cc1` returned a pIC50 in data set [1] of 7.7.

Molecule `Cc1ccc(Nc2ncnc3sc(-c4cccnc4C)cc23)c(C)c1` displayed a pIC50 in data set [1] of 5.4.

In general, Papp A→B refers to the apparent permeability from the apical to the basolateral side of a cell layer. In data set [1], `Cc1ccncc1-c1cc2c(Nc3ccc(S(C)(=O)=O)cc3)ncnc2s1` gave a pIC50 of 7.9. Besides, in data set [2], the Papp A→B was 2.45 ×10⁻⁶ cm/s.

Usually IC50 stands for the concentration that gives 50% inhibition. For `Cn1cc(-c2cc3c(Nc4ccc(S(C)(=O)=O)cc4)ncnc3s2)cn1`, in data set [1], the negative logarithm of the IC50 (pIC50) stood at 7.4. Moreover, the apparent permeability from apical to basolateral (Papp A→B) in data set [2] turned out to be 2.88 ×10⁻⁶ cm/s. The 50% inhibitory concentration (IC50) in data set [3] is above 10 µM.

In data set [1], `Cc1ncccc1-c1cc2c(Nc3ccc(C4CC4)cc3)ncnc2s1` yielded a pIC50 of 7.

Consider `CSc1ccc(Nc2ncnc3sc(-c4cccnc4Cl)cc23)cc1`, for which, in data set [1], the negative-log IC50 (pIC50) is reported as 7.7.

In turn, `CS(=O)(=O)c1ccc(Nc2ncnc3sc(-c4ccnc(Cl)c4)cc23)cc1` returned a negative-log IC50 (pIC50) in data set [1] of 7.2.

For the molecule `CS(=O)(=O)c1ccc(Nc2ncnc3sc(-c4cccnc4Cl)cc23)cc1`, the Papp A→B in data set [2] came to 4.73 ×10⁻⁶ cm/s. Also, the half-maximal inhibitory concentration (IC50) in data set [3] was above 10 µM.

Turning to `CSc1ccc(Nc2ncnc3sc(-c4cccnc4C)cc23)cc1`, the pIC50 in data set [1] was 7.3.

For the molecule `COc1cnccc1-c1cc2c(Nc3ccc(S(C)(=O)=O)cc3)ncnc2s1`, the negative-log IC50 (pIC50) in data set [1] is reported as 7.5.

`Cc1ccc(Nc2ncnc3sc(-c4cccnc4C)cc23)cc1` yielded a pIC50 in data set [1] of 5.8.

In data set [1], `CS(=O)(=O)c1ccc(Nc2ncnc3sc(-c4cccnc4)cc23)cc1` returned a pIC50 of 7.5.

Turning to `CSc1ccc(Nc2ncnc3cc(-c4cccnc4Cl)sc23)cc1`, the negative logarithm of the IC50 (pIC50) in data set [1] came out at 8.1. The Papp A→B in data set [2] stood at 12.9 ×10⁻⁶ cm/s.

Turning to `Cc1cnccc1-c1cc2c(Nc3ccc(S(C)(=O)=O)cc3)ncnc2s1`, the Papp A→B in data set [2] was 3.13 ×10⁻⁶ cm/s. Besides, the half-maximal inhibitory concentration (IC50) in data set [3] was above 10 µM.

`CSc1ccc(Nc2ncnc3sc(-c4cnoc4)cc23)cc1`: the negative logarithm of the IC50 (pIC50) in data set [1] is listed as 7.4.

Consider `CCc1ccc(Nc2ncnc3sc(-c4cccnc4C)cc23)cc1`, for which, in data set [1], the pIC50 stood at 6.4.

`CSc1ccc(Nc2ncnc3sc(-c4c(C)noc4C)cc23)cc1`: the pIC50 in data set [1] amounted to 7.6.

On to `Cc1ncccc1-c1cc2c(Nc3ccc(S(C)(=O)=O)cc3)ncnc2s1`, for which, in data set [1], the negative-log IC50 (pIC50) was 7.7. Besides, the apical-to-basolateral permeability (Papp A→B) in data set [2] came out at 1.33 ×10⁻⁶ cm/s. In addition, the IC50 in data set [3] is above 10 µM.

Consider `CS(=O)(=O)c1ccc(Nc2ncnc3sc(-c4cn[nH]c4)cc23)cc1`, for which, in data set [1], the negative-log IC50 (pIC50) was found to be 7.8.

On to `Cc1ncccc1-c1cc2ncnc(Nc3ccc(C4CC4)cc3)c2s1`, for which the negative logarithm of the IC50 (pIC50) in data set [1] is listed as 7.3. The Papp A→B in data set [2] was 9.95 ×10⁻⁶ cm/s.

Take `CS(=O)(=O)c1ccc(Nc2ncnc3scc(Cl)c23)cc1`: the apparent permeability from apical to basolateral (Papp A→B) in data set [2] stood at 14.2 ×10⁻⁶ cm/s.

For `Cc1ncccc1-c1cc2ncnc(Nc3ccc(N4CCCC4=O)cc3)c2s1`, in data set [1], the pIC50 is 8.1. Further, the Papp A→B in data set [2] amounted to 3.15 ×10⁻⁶ cm/s.

`CS(=O)(=O)c1ccc(Nc2ncnc3cc(-c4cccnc4Cl)sc23)cc1` showed a pIC50 in data set [1] of 7.9. For the same molecule, the Papp A→B in data set [2] was determined as 1.33 ×10⁻⁶ cm/s.

Molecule `CSc1ccc(Nc2ncnc3sc(-c4ccncc4C)cc23)cc1` returned a pIC50 in data set [1] of 7.7. Moreover, the apparent permeability from apical to basolateral (Papp A→B) in data set [2] was 3.7 ×10⁻⁶ cm/s.

For the molecule `Cc1cccc(Nc2ncnc3sc(-c4cccnc4C)cc23)c1`, in data set [1], the pIC50 worked out at 5.3.

In data set [1], `Cc1ccc(Nc2ncnc3sc(-c4cccnc4C)cc23)cc1C` returned a negative logarithm of the IC50 (pIC50) of 5.9.
